Results reported in patent publication US12077537B2 (Gilead Sciences, Inc., priority 2020, dated 2024).

What follows are molecules tested on HIV-IIIb (assay: Antiviral assay in MT4 cells). Settings: Human immunodeficiency virus 1, MT4, 120 h; MT-4 cells mixed with HIV-IIIb at m.o.i. 0.003; 5 days at 37° C.; CellTiter-Glo luminescence; 50% decrease in signal, a measure of HIV-1 replication.
Type: cell-based
Summary of the method: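 MT-4 cells were infected with HIV-IIIb at m.o.i. 0.003 for 1 hour, then added to 3-fold serially diluted compound (10 concentrations, quadruplicate) in medium with 10% FBS. After 5 days at 37° C, cell viability was read by CellTiter-Glo chemiluminescence.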

Row | EC50 [nM] | Compound
1 | 6.7 | CCN1CCN(c2nc3nc([C@H](Cc4cc(F)cc(F)c4)NC(=O)Cn4nc(C(F)(F)F)c5c4C(F)(F)[C@@H]4C[C@H]54)c(-c4cccc5c(NS(C)(=O)=O)nn(C)c45)cc3s2)CC1 [Example 68, 2-((3bS,4aR)-5,5-difluoro-3-(trifluoromethyl)-3b,4,4a,5-tetrahydro-1H-cyclopropa[3,4]cyclopenta[1,2-c]pyrazol-1-yl)-N—((S)-2-(3,5-difluorophenyl)-1-(2-(4-ethylpiperazin-1-yl)-6-(1-methyl-3-(methylsulfonamido)-1H-indazol-7-yl)thiazolo[4,5-b]pyridin-5-yl)ethyl)acetamide]
2 | 9.6 | Cn1nc(NS(C)(=O)=O)c2cccc(-c3cc4sc(NCC(C)(C)O)nc4nc3[C@H](Cc3cc(F)cc(F)c3)NC(=O)Cn3nc(C(F)(F)F)c4c3C(F)(F)[C@@H]3C[C@H]43)c21 [Compound 52, 2-((3bS,4aR)-5,5-difluoro-3-(trifluoromethyl)-3b,4,4a,5-tetrahydro-1H-cyclopropa[3,4]cyclopenta[1,2-c]pyrazol-1-yl)-N—((S)-2-(3,5-difluorophenyl)-1-(2-((2-hydroxy-2-methylpropyl)amino)-6-(1-methyl-3-(methylsulfonamido)-1H-indazol-7-yl)thiazolo[4,5-b]pyridin-5-yl)ethyl)acetamide]
3 | 1020 | O=C(Cn1nc(C(F)F)c2c1C(F)(F)CCC2(F)F)N[C@@H](Cc1cc(F)cc(F)c1)c1nc2ncsc2cc1-c1ccc(F)cc1 [Compound 16, (S)-2-(3-(difluoromethyl)-4,4,7,7-tetrafluoro-4,5,6,7-tetrahydro-1H-indazol-1-yl)-N-(2-(3,5-difluorophenyl)-1-(6-(4-fluorophenyl)thiazolo[4,5-b]pyridin-5-yl)ethyl)acetamide]
4 | 52.2 | Cn1nc(NS(C)(=O)=O)c2cccc(-c3cc4sc(NCc5ncc[nH]5)nc4nc3[C@H](Cc3cc(F)cc(F)c3)NC(=O)Cn3nc(C(F)(F)F)c4c3C(F)(F)[C@@H]3C[C@H]43)c21 [Example 71, N—((S)-1-(2-(((1H-imidazol-2-yl)methyl)amino)-6-(1-methyl-3-(methylsulfonamido)-1H-indazol-7-yl)thiazolo[4,5-b]pyridin-5-yl)-2-(3,5-difluorophenyl)ethyl)-2-((3bS,4aR)-5,5-difluoro-3-(trifluoromethyl)-3b,4,4a,5-tetrahydro-1H-cyclopropa[3,4]cyclopenta[1,2-c]pyrazol-1-yl)acetamide]
5 | 11.1 | Cn1nc(NS(C)(=O)=O)c2cccc(-c3cc4[nH]c(C5CC5)nc4nc3[C@H](Cc3cc(F)cc(F)c3)NC(=O)Cn3nc(C(F)F)c4c3C(F)(F)[C@@H]3C[C@H]43)c21 [Example 93, N—((S)-1-(2-cyclopropyl-6-(1-methyl-3-(methylsulfonamido)-1H-indazol-7-yl)-1H-imidazo[4,5-b]pyridin-5-yl)-2-(3,5-difluorophenyl)ethyl)-2-((3bS,4aR)-3-(difluoromethyl)-5,5-difluoro-3b,4,4a,5-tetrahydro-1H-cyclopropa[3,4]cyclopenta[1,2-c]pyrazol-1-yl)acetamide]

The remaining lines, values behind:

Row | Compound | EC50 [nM]
6 | O=C(Cn1nc(C(F)(F)F)c2c1C(F)(F)[C@@H]1C[C@H]21)N[C@@H](Cc1cc(F)cc(F)c1)c1nc2nc(N3CCN(c4ccc(-c5ncc[nH]5)cc4)CC3)sc2cc1-c1ccc2c(c1)C(=O)NC2 [Compound 34, N—((S)-1-(2-(4-(4-(1H-imidazol-2-yl)phenyl)piperazin-1-yl)-6-(3-oxoisoindolin-5-yl)thiazolo[4,5-b]pyridin-5-yl)-2-(3,5-difluorophenyl)ethyl)-2-((3bS,4aR)-5,5-difluoro-3-(trifluoromethyl)-3b,4,4a,5-tetrahydro-1H-cyclopropa[3,4]cyclopenta[1,2-c]pyrazol-1-yl)acetamide] | 97.8
7 | Cn1nc(N)c2cccc(-c3cc4sc(N5CC(C)(O)C5)nc4nc3[C@H](Cc3cc(F)cc(F)c3)NC(=O)Cn3nc(C(F)(F)F)c4c3C(F)(F)[C@@H]3C[C@H]43)c21 [Compound 58, N—((S)-1-(6-(3-amino-1-methyl-1H-indazol-7-yl)-2-(3-hydroxy-3-methylazetidin-1-yl)thiazolo[4,5-b]pyridin-5-yl)-2-(3,5-difluorophenyl)ethyl)-2-((3bS,4aR)-5,5-difluoro-3-(trifluoromethyl)-3b,4,4a,5-tetrahydro-1H-cyclopropa[3,4]cyclopenta[1,2-c]pyrazol-1-yl)acetamide] | 14.7
8 | O=C(Cn1nc(C(F)(F)F)c2c1C(F)(F)[C@@H]1C[C@H]21)N[C@@H](Cc1cc(F)cc(F)c1)c1nc2nc(N3CCN(c4nc5ccccc5[nH]4)CC3)sc2cc1-c1ccc2c(c1)C(=O)NC21CC1 [Compound 44, N—((S)-1-(2-(4-(1H-benzo[d]imidazol-2-yl)piperazin-1-yl)-6-(3′ oxospiro[cyclopropane-1,1′-isoindolin]-5′-yl)thiazolo[4,5-b]pyridin-5-yl)-2-(3,5-difluorophenyl)ethyl)-2-((3bS,4aR)-5,5-difluoro-3-(trifluoromethyl)-3b,4,4a,5-tetrahydro-1H-cyclopropa[3,4]cyclopenta[1,2-c]pyrazol-1-yl)acetamide] | 89.1
9 | CC1(O)CN(c2nc3cc(-c4ccc(F)c(C(N)=O)c4)c([C@H](Cc4cc(F)cc(F)c4)NC(=O)Cn4nc(C(F)(F)F)c5c4C(F)(F)[C@@H]4C[C@H]54)nc3o2)C1 [Example 111, 5-(5-((S)-1-(2-((3bS,4aR)-5,5-difluoro-3-(trifluoromethyl)-3b,4,4a,5-tetrahydro-1H-cyclopropa[3,4]cyclopenta[1,2-c]pyrazol-1-yl)acetamido)-2-(3,5-difluorophenyl)ethyl)-2-(3-hydroxy-3-methylazetidin-1-yl)oxazolo[5,4-b]pyridin-6-yl)-2-fluorobenzamide] | 156
10 | Cn1cnc(-c2nc3nc(C(Cc4cc(F)cc(F)c4)NC(=O)Cn4nc(C(F)(F)F)c5c4C(F)(F)[C@@H]4C[C@H]54)c(-c4cccc5c(NS(C)(=O)=O)nn(C)c45)cc3s2)c1 (stereo partly drawn) [Compound 134, 2-((3bS,4aR)-5,5-difluoro-3-(trifluoromethyl)-3b,4,4a,5-tetrahydro-1H-cyclopropa[3,4]cyclopenta[1,2-c]pyrazol-1-yl)-N-(2-(3,5-difluorophenyl)-1-(2-(1-methyl-1H-imidazol-4-yl)-6-(1-methyl-3-(methylsulfonamido)-1H-indazol-7-yl)thiazolo[4,5-b]pyridin-5-yl)ethyl)acetamide] | 10.2
11 | NC(=O)c1cc(-c2cc3sc(N4CCOCC4)nc3nc2C(Cc2cc(F)cc(F)c2)NC(=O)Cn2nc(C(F)F)c3c2C(F)(F)CCC3(F)F)ccc1F (stereo not shown) [Compound 18, 5-(5-(1-(2-(3-(difluoromethyl)-4,4,7,7-tetrafluoro-4,5,6,7-tetrahydro-1H-indazol-1-yl)acetamido)-2-(3,5-difluorophenyl)ethyl)-2-morpholinothiazolo[4,5-b]pyridin-6-yl)-2-fluorobenzamide] | 254
12 | Cn1nc(NS(C)(=O)=O)c2cccc(-c3cc4sc(NC5(C)CC5)nc4nc3[C@H](Cc3cc(F)cc(F)c3)NC(=O)Cn3nc(C(F)(F)F)c4c3C(F)(F)[C@@H]3C[C@H]43)c21 [Example 81, 2-((3bS,4aR)-5,5-difluoro-3-(trifluoromethyl)-3b,4,4a,5-tetrahydro-1H-cyclopropa[3,4]cyclopenta[1,2-c]pyrazol-1-yl)-N—((S)-2-(3,5-difluorophenyl)-1-(6-(1-methyl-3-(methylsulfonamido)-1H-indazol-7-yl)-2-((1-methylcyclopropyl)amino)thiazolo[4,5-b]pyridin-5-yl)ethyl)acetamide] | 18.6
13 | CC1CC1Nc1nc2nc([C@H](Cc3cc(F)cc(F)c3)NC(=O)Cn3nc(C(F)(F)F)c4c3C(F)(F)[C@@H]3C[C@H]43)c(-c3cccc4c(NS(C)(=O)=O)nn(C)c34)cc2s1 (stereo partly drawn) [Example 78, 2-((3bS,4aR)-5,5-difluoro-3-(trifluoromethyl)-3b,4,4a,5-tetrahydro-1H-cyclopropa[3,4]cyclopenta[1,2-c]pyrazol-1-yl)-N-((1S)-2-(3,5-difluorophenyl)-1-(6-(1-methyl-3-(methylsulfonamido)-1H-indazol-7-yl)-2-((2-methylcyclopropyl)amino)thiazolo[4,5-b]pyridin-5-yl)ethyl)acetamide] | 42.7
14 | Cn1nc(NS(C)(=O)=O)c2cccc(-c3cc4sc(N5CCC6(CC5)CNC6=O)nc4nc3[C@H](Cc3cc(F)cc(F)c3)NC(=O)Cn3nc(C(F)(F)F)c4c3C(F)(F)[C@@H]3C[C@H]43)c21 [Example 84, 2-((3bS,4aR)-5,5-difluoro-3-(trifluoromethyl)-3b,4,4a,5-tetrahydro-1H-cyclopropa[3,4]cyclopenta[1,2-c]pyrazol-1-yl)-N—((S)-2-(3,5-difluorophenyl)-1-(6-(1-methyl-3-(methylsulfonamido)-1H-indazol-7-yl)-2-(1-oxo-2,7-diazaspiro[3.5]nonan-7-yl)thiazolo[4,5-b]pyridin-5-yl)ethyl)acetamide] | 9.9
15 | CC1CN(c2nc3nc([C@H](Cc4cc(F)cc(F)c4)NC(=O)Cn4nc(C(F)(F)F)c5c4C(F)(F)[C@@H]4C[C@H]54)c(-c4ccc(F)c(C(N)=O)c4)cc3s2)CC(C)N1C1COC1 (stereo partly drawn) [Compound 30, 5-(5-((S)-1-(2-((3bS,4aR)-5,5-difluoro-3-(trifluoromethyl)-3b,4,4a,5-tetrahydro-1H-cyclopropa[3,4]cyclopenta[1,2-c]pyrazol-1-yl)acetamido)-2-(3,5-difluorophenyl)ethyl)-2-(3,5-dimethyl-4-(oxetan-3-yl)piperazin-1-yl)thiazolo[4,5-b]pyridin-6-yl)-2-fluorobenzamide] | 47.3
16 | NC(=O)c1cc(-c2cc3scnc3nc2[C@H](Cc2cc(F)cc(F)c2)NC(=O)Cn2nc(C(F)F)c3c2C(F)(F)CCC3(F)F)ccc1F [Compound 15-2, (S)-5-(5-(1-(2-(3-(difluoromethyl)-4,4,7,7-tetrafluoro-4,5,6,7-tetrahydro-1H-indazol-1-yl)acetamido)-2-(3,5-difluorophenyl)ethyl)thiazolo[4,5-b]pyridin-6-yl)-2-fluorobenzamide] | 326
